Test results taken from ChEMBL document CHEMBL4354802, “Peptide derivatives as inhibitors of NS2B-NS3 protease from Dengue, West Nile, and Zika flaviviruses” (Bioorg Med Chem, 2019).
Non-standard residues stand in square brackets, D forms with d. Residues, ends and D or L forms follow the SMILES beside them. ξ: configuration not given here. *: point of attachment. Trp(5-NO2) = N[C@@H](Cc1c[nH]c2ccc([N+](=O)[O-])cc12)C(=O)O; Gly(2-naphthyl) = N[C@H](C(=O)O)c1ccc2ccccc2c1; ξR = N=C(N)NCCCC(N)C(=O)O; 2Abz = Nc1ccccc1C(=O)O; PhAc = O=C(Cc1ccccc1)*

Columns and labels:
[1] = molecular target: T1, Nonstructural protein 3 (Zika virus, UniProt A0A024AXB9); assay: Inhibition of Zika virus IbH_30656 NS2B (45 to 96 residues)-NS3 (1 to 177 residues) protease expressed in Escherichia coli BL21/Rosetta (DE3) cells preincubated for 60 mins followed by Bz-nKRR-AMC addition and measured at 60 secs intervals over 10 mins by fluorescence method
T1 sequence (A0A024AXB9 whole entry, the tested form may be a part): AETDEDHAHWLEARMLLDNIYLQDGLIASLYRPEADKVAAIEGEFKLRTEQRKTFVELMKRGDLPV

[2] = molecular target: T2, Genome polyprotein (dengue virus type 2, UniProt P29990); assay: Inhibition of Dengue virus serotype 2 NS2B-NS3 protease preincubated for 20 mins followed by Abz-RRRRSAG-nY-NH2 addition and measured for 60 mins by fluorescence method
T2 sequence (P29990 1346-1475 limits assumed): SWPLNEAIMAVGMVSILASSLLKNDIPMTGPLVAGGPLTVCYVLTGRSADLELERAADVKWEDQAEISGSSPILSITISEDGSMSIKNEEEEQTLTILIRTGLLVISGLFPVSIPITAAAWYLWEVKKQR
T2 sequence (P29990 1476-2093 limits assumed): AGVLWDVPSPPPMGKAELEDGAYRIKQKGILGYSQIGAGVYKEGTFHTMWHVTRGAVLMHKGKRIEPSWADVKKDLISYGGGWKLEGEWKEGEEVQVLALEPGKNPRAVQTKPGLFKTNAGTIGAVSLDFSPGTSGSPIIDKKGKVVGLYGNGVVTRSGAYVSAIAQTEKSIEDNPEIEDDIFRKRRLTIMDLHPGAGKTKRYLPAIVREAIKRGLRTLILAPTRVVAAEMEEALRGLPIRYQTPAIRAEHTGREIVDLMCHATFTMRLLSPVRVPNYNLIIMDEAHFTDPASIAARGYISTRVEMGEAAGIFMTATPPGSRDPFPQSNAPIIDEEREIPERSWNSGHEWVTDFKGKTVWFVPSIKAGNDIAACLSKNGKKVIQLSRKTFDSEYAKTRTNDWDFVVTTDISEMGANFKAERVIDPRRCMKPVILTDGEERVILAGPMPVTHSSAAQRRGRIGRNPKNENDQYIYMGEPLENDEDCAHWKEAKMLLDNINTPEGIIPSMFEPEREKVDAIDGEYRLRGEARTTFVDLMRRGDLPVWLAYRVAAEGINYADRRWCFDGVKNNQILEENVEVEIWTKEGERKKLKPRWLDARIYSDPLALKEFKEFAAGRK

[3] = molecular target: Genome polyprotein; assay: Inhibition of Dengue virus serotype 1 NS2B-NS3 protease preincubated for 20 mins followed by Abz-RRRRSAG-nY-NH2 addition and measured for 60 mins by fluorescence method; set-up: species or system dengue virus type 1
Target sequence in this assay (P29990 1346-1475 limits assumed): as the sequence (P29990 1346-1475 limits assumed) above
Target sequence in this assay (P29990 1476-2093 limits assumed): as the sequence (P29990 1476-2093 limits assumed) above

[4] = molecular target: T3, Genome polyprotein (West Nile virus, UniProt P06935); assay: Inhibition of West Nile virus NS2B (47 residues)-NS3 (184 residues) protease expressed in Escherichia coli BL21 (DE3) preincubated for 15 mins followed by Benzoyl-Nle-KRR-AMC addition and measured after 30 mins by fluorescence method
T3 sequence (P06935 1371-1501 limits assumed): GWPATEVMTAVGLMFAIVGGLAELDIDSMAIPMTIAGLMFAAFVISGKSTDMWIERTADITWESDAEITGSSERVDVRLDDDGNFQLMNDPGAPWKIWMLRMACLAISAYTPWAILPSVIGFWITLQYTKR
T3 sequence (P06935 1502-2120 limits assumed): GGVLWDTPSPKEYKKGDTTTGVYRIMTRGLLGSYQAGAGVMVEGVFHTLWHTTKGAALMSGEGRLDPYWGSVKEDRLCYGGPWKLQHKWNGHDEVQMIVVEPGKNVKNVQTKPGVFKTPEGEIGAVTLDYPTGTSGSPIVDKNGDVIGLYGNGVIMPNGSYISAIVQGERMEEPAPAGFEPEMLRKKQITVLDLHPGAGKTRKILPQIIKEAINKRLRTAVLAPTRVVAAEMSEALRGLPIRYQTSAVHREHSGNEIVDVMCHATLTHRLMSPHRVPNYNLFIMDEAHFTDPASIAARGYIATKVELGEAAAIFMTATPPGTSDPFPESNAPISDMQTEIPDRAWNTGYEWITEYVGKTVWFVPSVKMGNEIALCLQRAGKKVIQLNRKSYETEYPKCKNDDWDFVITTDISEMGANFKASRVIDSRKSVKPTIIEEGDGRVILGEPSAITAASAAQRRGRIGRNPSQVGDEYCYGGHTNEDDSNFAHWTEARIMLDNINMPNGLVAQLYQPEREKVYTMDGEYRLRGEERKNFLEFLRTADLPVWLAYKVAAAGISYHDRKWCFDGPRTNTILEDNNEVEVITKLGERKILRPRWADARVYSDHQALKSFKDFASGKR

[5] = molecular target: T3, Genome polyprotein; assay: Inhibition of West Nile virus protease
[6] = molecular target: T2, Genome polyprotein; assay: Inhibition of Dengue virus serotype 2 NS2B(40 residues)-NS3 (185 residues) protease preincubated for 30 mins followed by ABz-nKRR-AMC addition and measured after 30 mins by fluorescence method
[7] = molecular target: T1, Nonstructural protein 3; assay: Inhibition of Zika virus unlinked NS2B-NS3 protease preincubated for 5 mins followed by benzoyl-nKRR-AMC addition and measured every 60 secs for 12 mins by fluorescence method
[8] = molecular target: T1, Nonstructural protein 3; assay: Inhibition of N-terminal His6-SUMO tagged Zika virus Puerto Rico NS2B-NS3 unlinked protease expressed in Escherichia coli BL21 Codon Plus (DE3) cells preincubated for 10 mins followed by pyr-TGKR-AMC addition and measured every 5 secs for 2 mins by fluorometric enzyme assay
[9] = molecular target: T1, Nonstructural protein 3; assay: Inhibition of N-terminal His6-SUMO tagged Zika virus Puerto Rico NS2B-NS3 unlinked protease expressed in Escherichia coli BL21 Codon Plus (DE3) cells preincubated for 90 mins followed by pyr-TGKR-AMC addition and measured every 5 secs for 2 mins by fluorometric enzyme assay
[10] = molecular target: T1, Nonstructural protein 3; assay: Inhibition of N-terminal His6-SUMO tagged Zika virus Puerto Rico NS2B-NS3 linked protease expressed in Escherichia coli BL21 Codon Plus (DE3) cells preincubated for 10 mins followed by pyr-TGKR-AMC addition and measured every 5 secs for 2 mins by fluorometric enzyme assay
[11] = molecular target: T3, Genome polyprotein; assay: Inhibition of West Nile virus NS2B-NS3 protease preincubated for 10 mins followed by Np-KKR-pNA addition and measured every 5 secs for 2 mins by fluorescence method
[12] = molecular target: thrombin (prothrombin) (Homo sapiens, UniProt P00734); assay: Inhibition of human thrombin at 25 uM preincubated for 15 mins followed by Boc-Val-Pro-Arg-AMC addition and measured for 10 mins by continuous fluorimetric assay relative to control; settings: human thrombin enzyme, probe Boc-Val-Pro-Arg-AMC
[13] = molecular target: T3, Genome polyprotein; assay: Inhibition of West Nile virus NS2B-NS3 protease preincubated for 1 hr followed by Pyr-RTKR-AMC addition and measured after 30 mins by fluorescence method

SMILES: [H]/N=C(\N)NCCC[C@@H](C=O)NC(=O)[C@H](CCCCN)NC(C)=O
- IC50 [1]: 280 nM

SMILES: CC(C)C[C@H](NC(=O)[C@H](Cc1cnc[nH]1)NC(=O)[C@H](CCCNC(=N)N)NC(=O)[C@H](CCCNC(=N)N)NC(=O)[C@H](CCCNC(=N)N)NC(=O)[C@H](CCCNC(=N)N)NC(=O)c1ccccc1N)C(=O)N[C@@H](CS)C(=O)N[C@@H](Cc1c[nH]c2ccc([N+](=O)[O-])cc12)C(N)=O (H-[2Abz]RRRRHLC[Trp(5-NO2)]-NH2)
- Ki [2]: 1100 nM
- Ki [3]: 300 nM

SMILES: N=C(N)NCCCC(C=O)NC(=O)[C@H](CCCCN)NC(=O)c1ncc[nH]1 (stereo not given in full)
- Ki [4]: 120 nM

SMILES: N=C(N)NCCC[C@@H](C=O)NC(=O)[C@H](CCCCN)NC(=O)[C@H](CCCCN)NC(=O)Cc1ccc(-c2ccccc2)cc1
- IC50 [5]: 56 nM
- IC50 [6]: 12200 nM

SMILES: N=C(N)NCCC[C@H](NC(=O)[C@H](CCCNC(=N)N)NC(=O)[C@H](CCCNC(=N)N)NC(=O)[C@@H](N)CCCNC(=N)N)C(=O)N[C@@H](Cc1cnc[nH]1)C(=O)N[C@@H](Cc1c[nH]c2ccccc12)C(=O)N[C@@H](CS)C(=O)N[C@@H](Cc1c[nH]c2ccccc12)C(N)=O (H-RRRRHWCW-NH2)
- Ki [2]: 300 nM
- Ki [3]: 400 nM

SMILES: N=C(N)NCCC[C@H](NC(=O)[C@H](CCCCN)NC(=O)[C@H](CCCCN)NC(=O)Cc1ccccc1)C(=O)NCC(=O)NCC(N)=O (PhAc-KKRGG-NH2)
- IC50 [7]: 1200 nM
- Ki [7]: 470 nM

SMILES: N=C(N)NCCC[C@H](NC(=O)Cc1ccc(CNC(=N)N)cc1)C(=O)N[C@@H](CCCNC(=N)N)C(=O)N[C@@H](CCCNC(=N)N)C(=O)NCc1ccc(C(=N)N)cc1
- IC50 [7]: 1100 nM
- Ki [7]: 430 nM

SMILES: N=C(N)NCCC[C@H](NC(=O)c1nccs1)C(=O)N[C@@H](CCCCN)C(=O)N[C@H](C(N)=O)c1ccc(OCc2ccc(C(F)(F)F)cc2)cc1
- IC50 [8]: 1060 nM
- IC50 [9]: 1350 nM
- IC50 [10]: 1040 nM

SMILES: N=C(N)NCCCC(NC(=O)[C@H](CCCCN)NC(=O)[C@H](CCCCN)NC(=O)[C@@H](NC(=O)[C@H](Cc1c[nH]cn1)NC(=O)CNC(=O)CN)c1ccc2ccccc2c1)C(N)=O (stereo not given in full) (H-GGH[Gly(2-naphthyl)]KK[ξR]-NH2)
- Ki [11]: 8000 nM

SMILES: CC(=O)N[C@@H](CCCNC(=N)N)C(=O)N[C@@H](CCCNC(=N)N)C(=O)N[C@@H](CCCNC(=N)N)C(=O)N[C@@H](CCCNC(=N)N)C(=O)N[C@@H](Cc1cnc[nH]1)C(=O)N[C@@H](Cc1c[nH]c2ccccc12)C(=O)N[C@@H](CS)C(=O)N[C@@H](Cc1c[nH]c2ccccc12)C(N)=O (Ac-RRRRHWCW-NH2)
- Ki [2]: 300 nM
- Ki [3]: 400 nM

SMILES: N=C(N)NCCC[C@H](NC(=O)[C@H](CCCCN)NC(=O)[C@H](CCCCN)NC(=O)Cc1ccc(CNC(=N)N)cc1)C(N)=O
- IC50 [7]: 1600 nM
- Ki [7]: 600 nM

SMILES: CCCC[C@H](NC(=O)[C@H](CCCCN)NC(=O)[C@H](CCCNC(=N)N)NC(=O)c1ccc(/C=C(\C#N)C(=O)NC2CC2)cc1)C(N)=O
- inhibition at 10 min, 25 µM [12]: 13.4%

SMILES: CC(C)C[C@H](NC(=O)[C@H](Cc1cnc[nH]1)NC(=O)[C@H](CCCNC(=N)N)NC(=O)[C@H](CCCNC(=N)N)NC(=O)[C@H](CCCNC(=N)N)NC(=O)[C@@H](N)CCCNC(=N)N)C(=O)N[C@@H](CS)C(=O)N[C@@H](Cc1c[nH]c2ccccc12)C(N)=O (H-RRRRHLCW-NH2)
- Ki [2]: 400 nM
- Ki [3]: 300 nM

SMILES: CC(=O)N[C@@H](CCCCN)C(=O)N[C@@H](CCCCN)C(=O)NCCCCNC(=N)N
- IC50 [13]: 18700 nM
- Ki [13]: 4900 nM
